# Test results as given in patent US20240366612A1, “COMPOUNDS AND METHODS FOR MODULATING NUCLEIC ACID SPLICING” (REMIX THERAPEUTICS INC., priority 2021, published 2024).
# How the values were obtained:
# [1] = tested on: HiBiT-tagged HTT protein in K562 cells; experiment: HiBiT protein abundance assay, HTT; type: cell-based, human; conditions: HiBiT-modified K562 cells, 24 hours, luminescence
# Procedure: (§1) Compounds described herein were used to screen for effects on quantitative protein abundance using a HiBit assay system (Promega). Quantitative protein abundance was determined by measuring the protein levels of HiBit-tagged protein targets expressed in cell culture via luminescence using the Nano-Glo HiBiT Lytic Detection System, which uses a split complementation assay format to reconstitute NanoBiT enzyme to generate a luminescent signal. A protein abundance assay was developed such that endogenous protein targets could be modified with the HiBiT peptide tag and their abundance could be assessed after compound treatment. Briefly, K562 cell lines containing a HiBiT-modification were treated with various compounds described herein (e.g., compounds of Formulas (I), (II), or (III)). After treatment for 24 hours, the protein abundance of a specific target was determined by measuring luminescence.
# (§2) • Promega Nano-Glo HiBiT Lytic Detection System (cat #N3030) • Corning 384-well TC-treated microplates (cat #3570) • Synthego Engineered Cells Knock-In Clones
# (§3) Cells were maintained in IMDM with 10% FBS. Before the assay, cells were diluted with […] growth media (IMDM+1% FBS media) and were seeded in a 384-well plate at a density of 10000 cells/well (for each cell line listed in Table 5). Each compound was prepared as a 10-point 3-fold serial dilution in DMSO with the top dose at a final concentration of 10 μM in the well. Unmodified K562 cells were added at the previously specified density with DMSO to serve as an assay baseline and positive control (PC) and DMSO only with the respective modified cell lines was added to the negative control (NC) columns. Final DMSO concentration was kept at or below 0.25%. Treated cell plates were placed in an incubator at 37° C. with 5% CO2 for 24 hours. After 24 hours, 25 μL of Complete HiBit Lytic reagent was added to each well at room temperature (e.g. one plate requiring 10 mL Lytic Buffer, 100 μL LgBiT Protein, 200 μL Lytic Substrate), shaken for 5 minutes at 600 RPM, then left to sit for 10 minutes for signal to stabilize before reading on a Spark Cyto plate reader (Tecan) with a 500 ms measurement time.
# (§4) To determine compound effects on protein abundance of each target in Table 5, the percent response for each respective cell line was calculated at each compound concentration as follows:
# (§5) For the normalized response at each concentration, a four-parameter logistical regression was fit to the data and the response was interpolated at the 50% value to determine a concentration for protein abundance at 50% (IC50) the untreated control.
# [2] = Cell Titer Glo 2.0 cell viability assay; conditions: human, K562 cells
# [3] = tested on: HiBiT-tagged MYB protein in K562 cells; experiment: HiBiT protein abundance assay, MYB; type: cell-based, human; conditions: HiBiT-modified K562 cells, 24 hours, luminescence
# Procedure: as §1, §2, §3, §4, §5
# [4] = tested on: HiBiT-tagged Target C protein in K562 cells; experiment: HiBiT protein abundance assay, Target C; type: cell-based, human; conditions: HiBiT-modified K562 cells, 24 hours, luminescence
# Procedure: as §1, §2, §3, §4, §5
# SMN2 CJ mRNA = experiment: Gene panel canonical junction qPCR assay, SMN2; type: cell-based; conditions: Homo sapiens, larger gene panel, read-out: SMN2 IC50 (decrease in CJ mRNA levels)
# Procedure: (§6) Compounds described herein were used to modulate RNA transcript abundance in cells. The expression of a target mRNA was measured by detecting the formation of an exon-exon junction in the canonical transcript (CJ). A compound mediated exon-inclusion event was detected by observing an increase in formation of a new junction with an alternative exon (AJ). Real-time qPCR assays were used to detect these splicing switches and interrogate the potency of various compounds towards different target genes. A high-throughput real time quantitative PCR (RT-qPCR) assay was developed to measure these two isoforms of the mRNA (CJ and AJ) for exemplary genes, such as HTT, SMN2, and MYB, together with a control housekeeping gene, GAPDH or GUSB or PPIA, used for normalization. Briefly, the A673 or K562 cell line was treated with various compounds described herein (e.g., compounds of Formula (I)). After treatment, the levels of the HTT, MYB, or SMN2 mRNA targets were determined from each sample of cell lysate by cDNA synthesis followed by qPCR.
# (§7) The A673 cell line was cultured in DMEM with 10% FBS. Cells were diluted with full growth media and plated in a 96-well plate (15,000 cells in 100 ul media per well). The plate was incubated at 37° C. with 5% CO2 for 24 hours to allow cells to adhere. An 11-point 3-fold serial dilution of the compounds was made in DMSO then diluted in media in an intermediate plate. Compounds were transferred from the intermediate plate to the cell plate with the top dose at a final concentration of 10 uM in the well. Final DMSO concentration was kept at or below 0.25%. The cell plate was returned to the incubator at 37° C. with 5% CO2 for an additional 24 hours.
# (§8) The K562 cell line was cultured in IMDM with 10% FBS. For K562, cells were diluted with full growth media and plated in either a 96-well plate (50,000 cells in 50 uL media per well) or a 384-well plate (8,000-40,000 cells in 45 uL media per well). An 11-point 3-fold serial dilution of the compounds were made in DMSO then diluted in media in an intermediate plate. Compound was transferred from the intermediate plate to the cell plate with the top dose at a final concentration of 10 uM in the well. Final DMSO concentration was kept at or below 0.25%. Final volume was 100 uL for 96-well plate and 50 uL for 384-well plate. The cell plate was then placed in an incubator at 37° C. with 5% CO2 for 24 hours.
# (§9) The data analysis was performed by first determining the ΔCt vs the housekeeper gene. This ΔCt was then normalized against the DMSO control (ΔΔCt) and converted to RQ (relative quantification) using the 2^(−ΔΔCt) equation. The RQ were then converted to a percentage response by arbitrarily setting an assay window of 3.5 and 4.0 ΔCt for HTT-CJ and MYB-CJ respectively and an assay window of 9 and 3 ΔCt for HTT-AJ and MYB-AJ in 96 well format (50,000 K562 cells/well and 15,000 A673 cells per well) and an assay window of 3 and 4 ΔCt for HTT-CJ and MYB-CJ respectively and an assay window of 5 and 3 ΔCt for HTT-AJ and MYB-AJ respectively in 384 well format (8,000 K562 cells/well example). […] The percentage response was then fitted to the 4 parametric logistic equation to evaluate the concentration dependence of compound treatment. The increase in AJ mRNA is reported as AC50 (compound concentration having […] in AJ increase) while the decrease in CJ mRNA levels is reported as IC50 (compound concentration having 50% response in CJ decrease).
# (§10) Additional studies were carried out for a larger panel of genes using the protocol provided above. The junction between flanking upstream and downstream exons was used to design canonical junction qPCR assays. At least one of the forward primer, reverse primer or the CY5-labeled 5′ nuclease probe (with 3′ quencher such as ZEN/Iowa Black FQ) was designed to overlap with the exon junction to capture the CJ mRNA transcript. […]
# MYB CJ mRNA = experiment: Gene panel canonical junction qPCR assay, MYB; type: cell-based; conditions: Homo sapiens, larger gene panel, read-out: MYB IC50 (decrease in CJ mRNA levels)
# Procedure: as §6, §7, §8, §9, §10
# MYB mRNA = experiment: Splicing RT-qPCR assay, MYB canonical (CJ) and alternative (AJ) junction mRNA; type: cell-based; conditions: Homo sapiens, A673 or K562 cells, 24 hours treatment; for IC50: decrease in CJ mRNA; for AC50: increase in AJ mRNA
# Procedure: as §6
# (§11) • Cells-to-CT 1-step kit: ThermoFisher A25602, Cells-to-CT lysis reagent: ThermoFisher 4391851C, TaqMan™ Fast Virus 1-Step Master Mix: ThermoFisher 4444436 • GAPDH: VIC-PL, ThermoFisher 4326317E (Assay: Hs99999905_ml)—used for K562/suspension cell lines • GUSB: VIC-PL, ThermoFisher 4326320E (Assay: Hs99999908_ml)—used for K562/suspension cell lines • PPIA: VIC-PL, ThermoFisher 4326316E (Assay: Hs99999904_ml)—used for A673/adherent cell lines
# as §7, §8
# (§12) The cells were then gently washed with 50 uL-100 uL cold PBS before proceeding to addition of lysis buffer. 30 uL-50 μL of room temperature lysis buffer with DNAse I (and optionally RNAsin) was added to each well. Cells were shaken/mixed thoroughly at room temperature for 5-10 minutes for lysis to take place and then 3 uL-5 μL of room temperature stop solution was added and wells were shaken/mixed again. After 2-5 minutes, the cell lysate plate was transferred to ice for RT-qPCR reaction setup. The lysates could also be frozen at −80° C. for later use.
# (§13) In some cases, a direct lysis buffer was used. An appropriate volume of 3×lysis buffer (10 mM Tris, 150 mM NaCl, 1.5%-2.5% Igepal and 0.1-1 U/uL RNAsin, pH 7.4) was directly added to either K562 or A673 cells in media and mixed by pipetting 3 times. The plates were then incubated at room temperature with shaking/rocking for 20-50 minutes to allow for lysis to take place. After this time, the cell lysate plate was transferred to ice to set up for the RT-qPCR reactions. The lysates could also be frozen at −80° C. for later use. […]
# Target C CJ mRNA = experiment: Gene panel canonical junction qPCR assay, Target C; type: cell-based; conditions: Homo sapiens, larger gene panel, read-out: Target C IC50 (decrease in CJ mRNA levels)
# Procedure: as §6, §7, §8, §9, §10
# HTT mRNA = experiment: Splicing RT-qPCR assay, HTT canonical (CJ) and alternative (AJ) junction mRNA; type: cell-based; conditions: Homo sapiens, A673 or K562 cells, 24 hours treatment; for IC50: decrease in CJ mRNA; for AC50: increase in AJ mRNA
# Procedure: as §6, §11, §7, §8, §12, §13
# HTT CJ mRNA = experiment: Gene panel canonical junction qPCR assay, HTT; type: cell-based; conditions: Homo sapiens, larger gene panel, read-out: HTT IC50 (decrease in CJ mRNA levels)
# Procedure: as §6, §7, §8, §9, §10
SMILES,IC50 [1],GI50 at 72 h [2],IC50 [3],IC50 [4],IC50 (SMN2 CJ mRNA),IC50 (MYB CJ mRNA),IC50 (MYB mRNA),AC50 (MYB mRNA),IC50 (Target C CJ mRNA),IC50 (HTT mRNA),AC50 (HTT mRNA),IC50 (HTT CJ mRNA)
O=c1c2sc(-c3ccc(-c4cn[nH]c4)cc3O)nc2ncn1C1CCNCC1 [Compound 334],> 10 µM,> 10 µM,> 10 µM,> 10 µM,–,–,–,–,–,–,–,–
Cc1cn2cc(-c3cc4ncn([C@H]5CCNC[C@@H]5O)c(=O)c4s3)cc(F)c2n1 [Compound 280],–,–,–,–,0.1 to 1 µM,0.1 to 1 µM,0.1 to 1 µM,0.1 to 1 µM,0.1 to 1 µM,0.1 to 1 µM,0.1 to 1 µM,0.1 to 1 µM
"CN1CCN(c2nc3ncn(-c4ccc5nn(C)cc5c4)c(=O)c3s2)CC1 [Compound 182, 6-(2-methyl-2H-indazol-5-yl)-2-(4-methylpiperazin-1-yl)thiazolo[4,5-d]pyrimidin-7(6H)-one]",–,–,–,–,1 to 10 µM,–,–,–,–,1 to 10 µM,1 to 10 µM,1 to 10 µM
"COc1c(-c2nc3ncn(C4CCNCC4)c(=O)c3s2)cc2cn(C)nc2c1C [Compound 335, 2-(6-methoxy-2,7-dimethylindazol-5-yl)-6-(piperidin-4-yl)-[1,3]thiazolo[4,5-d]pyrimidin-7-one]",> 10 µM,> 10 µM,> 10 µM,> 10 µM,–,–,–,–,–,–,–,–
"Cc1c(O)c(-c2nc3ncn(C4CCNCC4)c(=O)c3s2)cc2cn(C)nc12 [Compound 336, 2-(6-hydroxy-2,7-dimethylindazol-5-yl)-6-(piperidin-4-yl)-[1,3]thiazolo[4,5-d]pyrimidin-7-one]",0.1 to 1 µM,1 to 10 µM,0.1 to 1 µM,0.1 to 1 µM,–,–,–,–,–,–,–,–
Cc1c(O)c(-c2nc3c(=O)n(C4CCNCC4)cnc3s2)cc2cn(C)nc12 [Compound 283],1 to 10 µM,1 to 10 µM,1 to 10 µM,1 to 10 µM,–,–,–,–,–,–,–,–
Cc1cc(-c2cc3ccn(C4CCN(C)CC4)c(=O)c3s2)cc2cn(C)nc12 [Compound 807],–,1 to 10 µM,–,–,< 0.1 µM,0.1 to 1 µM,0.1 to 1 µM,0.1 to 1 µM,1 to 10 µM,0.1 to 1 µM,0.1 to 1 µM,0.1 to 1 µM
"Cc1cc(-c2cn3c(=O)cc(N4CCN(C)CC4)nc3s2)cc2cn(C)nc12 [Compound 183, 2-(2,7-dimethyl-2H-indazol-5-yl)-7-(4-methylpiperazin-1-yl)-5H-thiazolo[3,2-a]pyrimidin-5-one]",–,–,–,–,1 to 10 µM,> 10 µM,> 10 µM,> 10 µM,> 10 µM,> 10 µM,> 10 µM,> 10 µM
Cc1cn2cc(-c3cn4c(=O)cc(N5CCN(C)CC5)nc4s3)cc(F)c2n1 [Compound 184],–,–,–,–,1 to 10 µM,> 10 µM,> 10 µM,1 to 10 µM,–,> 10 µM,> 10 µM,> 10 µM
"Cc1cn2cc(-c3cc4ncn([C@H]5CNCC[C@@H]5O)c(=O)c4s3)cc(F)c2n1 (relative stereo) [Compound 281, 6-{8-fluoro-2-methylimidazo[1,2-a]pyridin-6-yl}-3-[(trans)-4-hydroxypiperidin-3-yl]thieno[3,2-d]pyrimidin-4-one]",–,–,–,–,1 to 10 µM,1 to 10 µM,1 to 10 µM,1 to 10 µM,1 to 10 µM,1 to 10 µM,1 to 10 µM,1 to 10 µM
